In this assay the target is human RIP1 kinase domain (2-375) (Homo sapiens (Human), UniProt Q13546). Description: biochemical. The class given is biochemical. The settings on record: 50 uM ATP. A digest of the protocol:
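50 nM purified kinase domain from baculovirus-infected insect cells, incubated 2 h with compound in 50 mM Hepes pH 7.5, 30 mM MgCl2, 1 mM DTT, 50 uM ATP, 0.002% Brij-35, 0.5% DMSO. ADP formation read by Transcreener FP at 633 nm excitation. Ki^app fitted with the Morrison tight-binding equation.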

[1] abbreviates: Table 1, apparent Ki (Morrison tight-binding fit), 50 nM RIP1 kinase domain, 2 hours incubation, read-out: RIP1 Ki.
Setting [2] is: tight-binding apparent inhibition constant, human RIP1 kinase domain (2-375) 50 nM, 2 hours, read-out: Ki.
The mark [3] stands for this setting: human RIP1 kinase domain (2-375), 2 hours incubation, Transcreener ADP assay, read-out: RIP1 Ki.
[4] abbreviates: Table 5, apparent Ki (Morrison tight-binding fit), 50 nM RIP1 kinase domain, 2 hours incubation, read-out: Ki.
[5] abbreviates: human RIP1 kinase domain (2-375), Transcreener ADP assay, 2 hours incubation, read-out: RIP1 Ki.

Where two headings read alike, the source gives them in different places.

Sequence of human RIP1 kinase domain (2-375) (Q13546 2-375): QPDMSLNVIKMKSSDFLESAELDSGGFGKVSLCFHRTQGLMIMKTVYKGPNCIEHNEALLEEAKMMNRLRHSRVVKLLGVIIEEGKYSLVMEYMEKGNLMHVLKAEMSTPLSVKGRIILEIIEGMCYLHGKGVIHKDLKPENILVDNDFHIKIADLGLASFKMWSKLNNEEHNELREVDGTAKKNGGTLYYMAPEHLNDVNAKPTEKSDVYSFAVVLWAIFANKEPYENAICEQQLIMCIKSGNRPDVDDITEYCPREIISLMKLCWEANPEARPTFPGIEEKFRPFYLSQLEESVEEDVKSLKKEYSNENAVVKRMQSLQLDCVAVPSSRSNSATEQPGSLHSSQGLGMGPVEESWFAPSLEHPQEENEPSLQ

Turning to `CC1CCc2[nH]nc(C(=O)N[C@H]3COc4ccccc4NC3=O)c2C1` (stereo partly drawn) [Example 57, 5-methyl-N-((S)-4-oxo-2,3,4,5-tetrahydrobenzo[b][1,4]oxazepin-3-yl)-4,5,6,7-tetrahydro-1H-indazole-3-carboxamide], under setting [1], the Ki is 276 nM. With `CN1C(=O)[C@@H](NC(=O)c2nc3n(n2)[C@@H](C2CCOCC2)CCC3)COc2ccccc21` (racemic) [Example 409, (R)—N—((S)-5-methyl-4-oxo-2,3,4,5-tetrahydrobenzo[b][1,4]oxazepin-3-yl)-5-(tetrahydro-2H-pyran-4-yl)-5,6,7,8-tetrahydro-[1,2,4]triazolo[1,5-a]pyridine-2-carboxamide], the Ki under setting [2] is 565 nM.

As to `CN1C(=O)[C@@H](NC(=O)c2nnc(Cc3ccc(F)cc3)[nH]2)CCn2nccc21` [Example 98, (S)-5-(4-fluorobenzyl)-N-(4-methyl-5-oxo-5,6,7,8-tetrahydro-4H-pyrazolo[1,5-a][1,3]diazepin-6-yl)-4H-1,2,4-triazole-3-carboxamide], the Ki under setting [3] worked out at 70.4 nM. Regarding `CN1C(=O)[C@@H](NC(=O)c2cn(Cc3ccccc3)nn2)CCn2nc(C3CC3)cc21` (single isomer, unassigned) [Example 112], the Ki under setting [3] was 139 nM. Turning to `Cc1cc2n(n1)CC[C@H](NC(=O)c1ncn(CC3CCC(F)(F)C3)n1)C(=O)N2C` (stereo partly drawn) [Example 569, 1-[(3,3-difluorocyclopentyl)methyl]-N-(6S)-2,4-dimethyl-5-oxo-7,8-dihydro-6H-pyrazolo[1,5-a][1,3]diazepin-6-yl-1,2,4-triazole-3-carboxamide], the Ki under setting [2] was determined as 580 nM. Consider `CN1C(=O)[C@@H](NC(=O)c2ncn(Cc3cccc(F)c3)n2)CCn2nc(C3CC3)cc21` [Example 531], for which the Ki under setting [2] worked out at 14 nM. Consider `COC1CN(Cc2cc3n(n2)CCC(NC(=O)c2ncn(Cc4ccccc4)n2)C(=O)N3C)C1` (single isomer, unassigned) [Example 451, 1-benzyl-N-(2-((3-methoxyazetidin-1-yl)methyl)-4-methyl-5-oxo-5,6,7,8-tetrahydro-4H-pyrazolo[1,5-a][1,3]diazepin-6-yl)-1H-1,2,4-triazole-3-carboxamide], for which, under setting [2], the Ki came out at 444 nM. As to `CN1C(=O)[C@@H](NC(=O)c2ncn(Cc3ccccc3)n2)CCn2nc(CCN3CC(F)C3)cc21` [Example 769], the Ki under setting [4] turned out to be 233 nM. For the compound `Cc1cc2n(n1)CC[C@H](NC(=O)c1nnn(Cc3ccccc3)n1)C(=O)N2C` [Example 541, 2-benzyl-N-(6S)-2,4-dimethyl-5-oxo-7,8-dihydro-6H-pyrazolo[1,5-a][1,3]diazepin-6-yltetrazole-5-carboxamide], the Ki under setting [2] amounted to 5 nM. Turning to `CN1C(=O)[C@@H](NC(=O)c2ncn3ccc(C(F)(F)F)cc23)CCn2nccc21` [Example 336, (S)-N-(4-methyl-5-oxo-5,6,7,8-tetrahydro-4H-pyrazolo[1,5-a][1,3]diazepin-6-yl)-7-(trifluoromethyl)imidazo[1,5-a]pyridine-1-carboxamide], the Ki (Table 3, apparent Ki (Morrison tight-binding fit), 50 nM RIP1 kinase domain, 2 hours incubation, read-out: Ki) is 231 nM. As for `CC(O)c1cc2n(n1)CC[C@H](NC(=O)c1ncn(Cc3ccccc3)n1)C(=O)N2C` (single isomer, unassigned) [Example 367], the Ki under setting [2] stood at 161 nM. `CC(c1ccccc1)n1cnc(C(=O)N[C@H]2CCn3nc(C4CC4)cc3N(C)C2=O)n1` (stereo in doubt) [Example 292, (S)—N-(2-cyclopropyl-4-methyl-5-oxo-5,6,7,8-tetrahydro-4H-pyrazolo[1,5-a][1,3]diazepin-6-yl)-1-(1-phenylethyl)-1H-1,2,4-triazole-3-carboxamide]: under setting [5], the Ki was determined as 100 nM. Consider `CN1C(=O)[C@@H](NC(=O)c2nc3n(n2)CC[C@H]3c2ccccc2)COc2ccccc21` [Example 572, (7S)-7-phenyl-N-[(3S)-5-methyl-4-oxo-2,3-dihydro-1,5-benzoxazepin-3-yl]-6,7-dihydro-5H-pyrrolo[1,2-b][1,2,4]triazole-2-carboxamide], for which the Ki under setting [2] amounted to 450 nM.

With `CN1C(=O)[C@@H](NC(=O)c2nc3n(n2)C(c2ccccc2)COC3)COc2ccccc21` (stereo partly drawn) [Example 123, N—((S)-5-methyl-4-oxo-2,3,4,5-tetrahydrobenzo[b][1,4]oxazepin-3-yl)-5-phenyl-5,6-dihydro-8H-[1,2,4]triazolo[5,1-c][1,4]oxazine-2-carboxamide], the Ki under setting [3] was 268 nM.

Consider `CCC1CCCc2nc(C(=O)N[C@H]3COc4ccccc4N(C)C3=O)nn21` (stereo partly drawn) [Example 383, 5-ethyl-N—((S)-5-methyl-4-oxo-2,3,4,5-tetrahydrobenzo[b][1,4]oxazepin-3-yl)-5,6,7,8-tetrahydro-[1,2,4]triazolo[1,5-a]pyridine-2-carboxamide], for which the Ki under setting [2] was determined as 29.5 nM. For `C[C@@H]1CCc2onc(C(=O)N[C@H]3COc4ccccc4N(C)C3=O)c2C1` [Example 70, (R)-5-methyl-N-((S)-5-methyl-4-oxo-2,3,4,5-tetrahydrobenzo[b][l,4]oxazepin-3-yl)-4,5,6,7-tetrahydrobenzo[d]isoxazole-3-carboxamide], the Ki under setting [1] was found to be 219 nM. `CN1C(=O)[C@@H](NC(=O)c2ncn(Cc3ccccc3)n2)CCn2nc(CN3CC(F)C3)cc21` (single isomer, unassigned) [Example 726]: the Ki under setting [4] stood at 142 nM. Turning to `CC[C@@]1(C)OCc2cnc(C(=O)N[C@H]3COc4cc(F)cc(F)c4NC3=O)cc21` [Example 244, (R)—N—((S)-6,8-difluoro-4-oxo-2,3,4,5-tetrahydrobenzo[b][1,4]oxazepin-3-yl)-1-ethyl-1-methyl-1,3-dihydrofuro[3,4-c]pyridine-6-carboxamide], the Ki under setting [5] worked out at 36.8 nM. For the compound `CN1C(=O)[C@@H](NC(=O)c2nc3n(n2)[C@@H](c2ccccc2)CC3)COc2ccccc21` [Example 623, (5R)-5-phenyl-N-[(3S)-5-methyl-4-oxo-2,3-dihydro-1,5-benzoxazepin-3-yl]-6,7-dihydro-5H-pyrrolo[1,2-b][1,2,4]triazole-2-carboxamide], the Ki under setting [2] amounted to 3.4 nM.

On to `CN1C(=O)[C@@H](NC(=O)c2ncn(Cc3ccccc3)n2)CC[C@H]2[C@@H]1C2(F)F` (single isomer, unassigned) [Example 130], for which the Ki under setting [3] is > 10000 nM. Take `Cc1nn2c(c1C)N(C)C(=O)[C@@H](NC(=O)c1nnc(Cc3ccccc3)[nH]1)CC2` [Example 300, (S)-5-benzyl-N-(2,3,4-trimethyl-5-oxo-5,6,7,8-tetrahydro-4H-pyrazolo[1,5-a][1,3]diazepin-6-yl)-4H-1,2,4-triazole-3-carboxamide]: the Ki under setting [5] was 50.4 nM. As to `CN1C(=O)[C@@H](NC(=O)c2cn(Cc3ccc(F)c(F)c3)cn2)COc2c1cnn2C` [Example 183, (S)-1-(3,4-difluorobenzyl)-N-(1,4-dimethyl-5-oxo-4,5,6,7-tetrahydro-1H-pyrazolo[3,4-b][1,4]oxazepin-6-yl)-1H-imidazole-4-carboxamide], the Ki under setting [3] turned out to be 1600 nM.

On to `O=C(N[C@H]1COc2ccccc2NC1=O)c1n[nH]c2c1C1CC1CC2` (stereo partly drawn) [Example 54, N-((S)-4-oxo-2,3,4,5-tetrahydrobenzo[b][1,4]oxazepin-3-yl)-3,4,5,5a,6,6a-hexahydrocyclopropa[e]indazole-1-carboxamide], for which the Ki under setting [1] worked out at 7700 nM.

Take `Cc1cc2n(n1)CC[C@H](NC(=O)c1ncn(Cc3ncccc3Cl)n1)C(=O)N2C` [Example 657, 1-[(3-chloro-2-pyridyl)methyl]-N-(6S)-2,4-dimethyl-5-oxo-7,8-dihydro-6H-pyrazolo[1,5-a][1,3]diazepin-6-yl-1,2,4-triazole-3-carboxamide]: the Ki under setting [2] was found to be 74 nM. As for `CN1C(=O)C(NC(=O)c2ncn(Cc3ccccc3)n2)CCn2nc(-c3cnn(C)c3)cc21` (racemic) [Example 778, 1-benzyl-N-(4-methyl-2-(1-methyl-1H-pyrazol-4-yl)-5-oxo-5,6,7,8-tetrahydro-4H-pyrazolo[1,5-a][1,3]diazepin-6-yl)-1H-1,2,4-triazole-3-carboxamide], under setting [4], the Ki came out at 171 nM.

For `CC1CCc2noc(C(=O)N[C@H]3COc4ccccc4NC3=O)c2C1` (stereo partly drawn) [Example 62, 5-methyl-N-((S)-4-oxo-2,3,4,5-tetrahydrobenzo[b][1,4]oxazepin-3-yl)-4,5,6,7-tetrahydrobenzo[c]isoxazole-3-carboxamide], the Ki under setting [1] was 254 nM. For the compound `CC(C)n1ncc2cnc(C(=O)N[C@H]3COc4cc(F)cc(F)c4NC3=O)nc21` [Example 605, 1-isopropyl-N-[(3S)-6,8-difluoro-4-oxo-3,5-dihydro-2H-1,5-benzoxazepin-3-yl]pyrazolo[3,4-d]pyrimidine-6-carboxamide], the Ki under setting [2] was determined as 9.5 nM. As for `CN1C(=O)[C@@H](NC(=O)c2nc3cccc(-c4ccccc4)c3s2)CCn2nccc21` [Example 392, (S)—N-(4-methyl-5-oxo-5,6,7,8-tetrahydro-4H-pyrazolo[1,5-a][1,3]diazepin-6-yl)-7-phenylbenzo[d]thiazole-2-carboxamide], the Ki under setting [2] was determined as 96.3 nM. As to `CN1C(=O)[C@@H](NC(=O)c2ncn(Cc3ccccc3F)n2)CCn2nc(CCN3CC(F)C3)cc21` [Example 770, 1-[(2-fluorophenyl)methyl]-N-[(6S)-2-[2-(3-fluoroazetidin-1-yl)ethyl]-4-methyl-5-oxo-7,8-dihydro-6H-pyrazolo[1,5-a][1,3]diazepin-6-yl]-1,2,4-triazole-3-carboxamide], the Ki under setting [4] turned out to be 337 nM. Turning to `O=C(N[C@H]1CCc2cc(F)cc(F)c2NC1=O)c1nc2cccc(C(F)(F)F)n2n1` [Example 418, (S)—N-(7,9-difluoro-2-oxo-2,3,4,5-tetrahydro-1H-benzo[b]azepin-3-yl)-5-(trifluoromethyl)-[1,2,4]triazolo[1,5-a]pyridine-2-carboxamide], under setting [2], the Ki was determined as 34.3 nM.

(Values after patent US10988459B2 (priority 2015, dated 2021).)
